These results are taken from publication PMC5771956 (Nature chemical biology, 2017).

Assay [1] deals with T1, D2 I184A^EL2 mutant (Homo sapiens, UniProt P14416, I184A). The experiment in a line: cell-based. The assay is classed as cell-based. The following applies: for effect of I184A mutation on β-arrestin2 recruitment: Tango. On the technique in general: Arrestin recruitment assays detect the binding of arrestin to an activated receptor.
Assay [2] concerns the target T2, D2 dopamine receptor (D2R) (Homo sapiens, UniProt P14416). Description: cell-based. The following applies: for Emax: read-out: D2 Gi/o Emax, D2 wild-type, normalized to quinpirole.
Another assay addresses human D2Long (Homo sapiens, UniProt P14416). Description: cell-based. The following applies: for Emax: read-out: D2 β-arrestin2 Emax, D2 wild-type, Tango, normalized to quinpirole.
Assay [3] addresses T2, D2 dopamine receptor (D2R). The experiment in a line: Bias calculation, Gi/o activity versus β-arrestin2 recruitment. The assay is classed as cell-based. The following applies: for bias factor: arrestin recruitment over Gi/o signaling, relative to quinpirole.
In assay [4] the target is T1, D2 I184A^EL2 mutant. The experiment in a line: Competitive binding kinetics with [3H] NMSP at I184A mutant.
In assay [5] the test system is β2AR EL2.52 F194 mutants (alanine, leucine, isoleucine). The experiment in a line: β-arrestin2 recruitment by Tango at β2AR EL2 mutants. The assay is classed as cell-based.

Entries after “also recorded” stand apart in the source; their conditions may differ.

Sequence of human D2Long (P14416 whole entry): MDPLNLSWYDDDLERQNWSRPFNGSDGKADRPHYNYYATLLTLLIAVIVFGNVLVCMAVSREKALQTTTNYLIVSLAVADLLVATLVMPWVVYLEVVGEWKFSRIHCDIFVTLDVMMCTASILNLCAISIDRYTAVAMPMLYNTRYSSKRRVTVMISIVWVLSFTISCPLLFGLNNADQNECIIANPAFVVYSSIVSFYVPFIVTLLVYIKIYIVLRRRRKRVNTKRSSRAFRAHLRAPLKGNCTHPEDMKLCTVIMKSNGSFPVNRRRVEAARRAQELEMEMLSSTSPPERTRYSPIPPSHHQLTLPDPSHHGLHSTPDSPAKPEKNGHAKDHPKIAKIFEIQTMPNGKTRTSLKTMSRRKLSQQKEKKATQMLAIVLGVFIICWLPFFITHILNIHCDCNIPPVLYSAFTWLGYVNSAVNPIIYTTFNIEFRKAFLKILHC
T2 sequence (P14416 whole entry): as above
T1 sequence (P14416 whole entry I184A): as the sequence (P14416 whole entry) above, with I184A counted along it

As for `O=C1CCc2ccc(OCCCCN3CCCN(c4cccc(Cl)c4Cl)CC3)nc2N1` [UNC 9975, reference compound], the “effect of I184A mutation on β-arrestin2 recruitment” value (from here on “effect of I184A mutation”) at D2 I184A^EL2 mutant [1] is reported as “no change in arrestin recruitment efficacy”.

In the case of `Clc1cccc(C2CCN(CCCOc3ccc4scnc4c3)CC2)c1Cl` [UNC 9994, reference compound], the “effect of I184A mutation” value on D2 I184A^EL2 mutant [1] is “no change in arrestin recruitment efficacy”.

Usually EC50 stands for the midpoint of the concentration-response curve. Read a low EC50 as a more potent agent. Consider `Cc1cc2c(N3CCN(CCCCOc4ccc5c(c4)NC(=O)CC5)CC3)cccc2[nH]1` [compound 6, 7-(4-(4-(2-methyl-1H-indol-4-yl)piperazin-1-yl)butoxy)-3,4-dihydroquinolin-2(1H)-one], for which the EC50 in assay [2] stood at 0.49 nM; on human D2Long it was 0.62 nM; at D2 I184A^EL2 mutant [1], 2.7 nM. The Emax was 86% in assay [2], 78% at human D2Long and 40% on D2 I184A^EL2 mutant [1] (read-out: β-arrestin2 Emax at I184A). Besides, the “effect of I184A mutation” value at D2 I184A^EL2 mutant [1] is given as “selectively abolishing; also recorded: partial but not complete loss of arrestin recruitment efficacy”. Moreover, the “SFSR summary (signaling profile)” value in assay [3] (Gi/o versus arrestin activity) is on record as “no preference for arrestin recruitment over G protein activation”. The bias factor in assay [3] was 1.3.

Consider `Cc1cc2c(N3CCN(CCCCOc4ccc5c(c4)NC(=O)CC5)CC3)cccc2n1C` [compound 7, 7-(4-(4-(1,2-Dimethyl-1H-indol-4-yl)piperazin-1-yl)butoxy)-3,4-dihydroquinolin-2(1H)-one], for which, in assay [2], the Emax was 60%. Also, the Emax at human D2Long is 78%. Also, the “effect of I184A mutation” value at D2 I184A^EL2 mutant [1] was “almost completely abolishes”. Besides, the bias factor in assay [3] was 20. In addition, on D2 I184A^EL2 mutant [4], the “increase in off-rate at I184A compared to D2R wild-type” value is 6.2 fold and the “increase in on-rate at I184A compared to D2R wild-type” value amounted to 6.7 fold.

For `CC(C)NC[C@H](O)c1ccc(O)c(O)c1` [isoproterenol, (−)-isoproterenol bitartrate], in assay [5], the “β-arrestin2 recruitment at β2AR EL2 mutants” value is “substantially reduced”.
